Measurements published in ChEMBL document CHEMBL1201862, “PubChem BioAssay data set” (2004).
Activity calls are given as the source filed them.

Assays:
[1] = target: Nucleotide-binding oligomerization domain-containing protein 2 (Homo sapiens, UniProt Q9HC29); assay: NOD2 signaling inhibitors, cell-based, luminescence, uHTS, HEK293 (AID 1566); format: functional
HEK293 [2] = assay: NOD1 signaling inhibitors, primary screen, cell-based, luminescence, uHTS (AID 1578); format: functional; conditions: Homo sapiens
HEK293 [3] = assay: cells; format: functional, cell-based; conditions: Homo sapiens
HEK293 [4] = assay: NOD2 signaling inhibitors in MDP-stimulated cells, cell-based, uHTS, luminescence (AID 2001); format: functional; conditions: Homo sapiens
[5] = target: T1, COUP transcription factor 2 (Homo sapiens, UniProt P24468); assay: Luminescence-based cell-based high throughput dose response assay to identify inhibitors of COUP-TFII (NR2F2).; format: functional;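 note: HEK293 cells transiently cotransfected with COUP-TFII expression vector and reporter; luciferase reporter luminescence driven by COUP-TFII from the pX2-168 reporter plasmid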
T1 sequence (P24468 whole entry): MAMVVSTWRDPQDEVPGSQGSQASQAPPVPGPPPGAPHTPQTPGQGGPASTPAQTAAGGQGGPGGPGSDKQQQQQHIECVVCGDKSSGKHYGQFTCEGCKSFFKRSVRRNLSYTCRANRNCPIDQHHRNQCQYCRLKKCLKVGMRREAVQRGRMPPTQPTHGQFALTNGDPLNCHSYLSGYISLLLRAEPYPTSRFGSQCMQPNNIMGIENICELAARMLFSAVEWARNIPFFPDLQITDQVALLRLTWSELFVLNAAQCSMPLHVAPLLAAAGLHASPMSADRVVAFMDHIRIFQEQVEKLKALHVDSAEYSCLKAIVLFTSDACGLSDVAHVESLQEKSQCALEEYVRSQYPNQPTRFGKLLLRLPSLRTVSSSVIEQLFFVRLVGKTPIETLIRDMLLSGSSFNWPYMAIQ

HEK293 [6] = assay: cells; format: functional, cell-based; conditions: Homo sapiens; remark: listed apart in the source
HEK293 [7] = assay: cells; format: functional, cell-based; conditions: Homo sapiens; remark: listed apart in the source
[8] = target: T2, Alkaline phosphatase, tissue-nonspecific isozyme (Homo sapiens, UniProt P05186); assay: human TNAP enzyme inhibitors, SAR follow-up, biochemical, luminescent, dose response (AID 1056)
T2 sequence (P05186 whole entry): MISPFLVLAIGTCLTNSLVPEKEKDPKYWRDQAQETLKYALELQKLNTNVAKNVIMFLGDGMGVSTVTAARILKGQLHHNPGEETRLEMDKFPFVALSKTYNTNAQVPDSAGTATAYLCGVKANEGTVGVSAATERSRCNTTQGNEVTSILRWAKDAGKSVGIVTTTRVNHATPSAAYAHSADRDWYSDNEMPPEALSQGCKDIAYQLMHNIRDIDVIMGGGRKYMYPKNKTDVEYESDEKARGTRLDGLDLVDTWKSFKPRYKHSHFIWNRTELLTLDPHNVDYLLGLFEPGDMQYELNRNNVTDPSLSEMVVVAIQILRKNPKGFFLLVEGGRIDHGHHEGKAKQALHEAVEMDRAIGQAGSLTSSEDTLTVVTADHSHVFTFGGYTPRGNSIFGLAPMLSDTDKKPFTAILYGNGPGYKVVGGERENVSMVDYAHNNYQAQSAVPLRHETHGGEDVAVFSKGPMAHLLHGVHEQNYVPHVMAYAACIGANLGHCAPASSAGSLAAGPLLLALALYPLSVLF

[9] = target: Alkaline phosphatase, placental type (Homo sapiens, UniProt P05187); assay: PLAP enzyme inhibitors, confirmation, biochemical, luminescence (AID 1512); format: functional
[10] = target: T3, Replicative DNA helicase DnaB (Mycobacterium tuberculosis, UniProt P9WMR3); assay: DnaB intein splicing inhibitors, dose response, biochemical, cell-free fluorescence (AID 449749); format: functional
T3 sequence (P9WMR3 whole entry): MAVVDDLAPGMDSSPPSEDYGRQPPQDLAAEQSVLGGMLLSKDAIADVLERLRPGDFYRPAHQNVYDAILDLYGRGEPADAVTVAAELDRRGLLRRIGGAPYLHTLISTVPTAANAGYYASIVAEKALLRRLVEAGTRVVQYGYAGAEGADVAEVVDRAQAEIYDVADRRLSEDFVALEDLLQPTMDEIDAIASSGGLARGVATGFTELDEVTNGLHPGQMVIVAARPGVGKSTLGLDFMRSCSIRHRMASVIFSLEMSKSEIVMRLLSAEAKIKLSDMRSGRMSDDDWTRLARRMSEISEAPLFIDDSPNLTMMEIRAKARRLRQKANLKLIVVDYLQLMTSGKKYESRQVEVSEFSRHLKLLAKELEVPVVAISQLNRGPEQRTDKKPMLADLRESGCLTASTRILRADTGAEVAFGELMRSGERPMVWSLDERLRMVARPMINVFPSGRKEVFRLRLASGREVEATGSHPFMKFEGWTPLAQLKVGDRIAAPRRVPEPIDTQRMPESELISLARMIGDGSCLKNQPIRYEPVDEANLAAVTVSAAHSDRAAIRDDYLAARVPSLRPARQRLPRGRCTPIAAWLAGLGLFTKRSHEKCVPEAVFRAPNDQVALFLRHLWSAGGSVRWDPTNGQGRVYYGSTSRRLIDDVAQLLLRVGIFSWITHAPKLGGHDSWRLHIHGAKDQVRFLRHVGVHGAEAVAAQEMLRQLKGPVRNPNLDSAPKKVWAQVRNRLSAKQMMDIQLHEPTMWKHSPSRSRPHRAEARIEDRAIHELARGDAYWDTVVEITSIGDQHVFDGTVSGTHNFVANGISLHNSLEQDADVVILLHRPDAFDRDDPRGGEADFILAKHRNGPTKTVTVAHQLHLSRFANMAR

[11] = target: Heat shock protein HSP 90-alpha (Homo sapiens, UniProt P07900); format: functional, organism-based
[12] = growth suppression of PTEN-null colon cells, dose response, cell-based, HCT116 PTEN knockout (AID 1047); format: functional;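 note: HCT116 colon tumor cells with PTEN knocked out; cells exposed to compound for 60 hours before readout; potency for loss of cell viability measured by luminescence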
Protein RecA = target: T4, Protein RecA (Mycobacterium tuberculosis, UniProt P9WHJ3); assay: Fluorescence Cell-Free Homogeneous Dose Retest to Identify Inhibitors of RecA-Intein Splicing Activity. [Related pubchem assays (depositor defined):AID2097, AID2223, AID489010, AID492950]; format: functional
T4 sequence (P9WHJ3 whole entry): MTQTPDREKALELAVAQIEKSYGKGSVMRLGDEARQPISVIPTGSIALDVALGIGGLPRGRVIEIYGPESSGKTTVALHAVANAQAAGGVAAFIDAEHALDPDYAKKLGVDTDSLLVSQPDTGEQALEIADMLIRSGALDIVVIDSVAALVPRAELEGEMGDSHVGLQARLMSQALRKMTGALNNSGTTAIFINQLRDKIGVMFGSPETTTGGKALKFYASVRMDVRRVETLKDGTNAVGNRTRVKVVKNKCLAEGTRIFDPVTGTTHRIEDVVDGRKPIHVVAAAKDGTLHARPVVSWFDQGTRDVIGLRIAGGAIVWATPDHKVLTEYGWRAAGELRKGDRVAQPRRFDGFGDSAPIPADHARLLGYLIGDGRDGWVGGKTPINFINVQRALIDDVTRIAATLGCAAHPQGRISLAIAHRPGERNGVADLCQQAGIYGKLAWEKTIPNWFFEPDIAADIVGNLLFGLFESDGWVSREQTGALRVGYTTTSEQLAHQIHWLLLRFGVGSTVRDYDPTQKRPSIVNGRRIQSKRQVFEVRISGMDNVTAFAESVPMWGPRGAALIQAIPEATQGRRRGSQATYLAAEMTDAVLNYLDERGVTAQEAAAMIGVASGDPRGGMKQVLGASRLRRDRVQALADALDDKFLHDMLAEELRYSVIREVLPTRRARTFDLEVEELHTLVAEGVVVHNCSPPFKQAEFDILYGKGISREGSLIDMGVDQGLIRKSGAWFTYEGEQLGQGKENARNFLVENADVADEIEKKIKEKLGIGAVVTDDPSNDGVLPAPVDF

[13] = growth suppression of beta-catenin-knockout colon cells, dose response, cell-based, HCT116, human colon tumor (AID 1045); format: functional;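 note: HCT116 colon tumor cells with beta catenin knocked out; cells exposed to compound for 60 hours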
cells = format: functional
[14] = Vero E6 cell cytotoxicity, dose response, cytotoxicity control for non-replicating M. tuberculosis project, secondary assay (AID 492998); format: functional, VeroE6; conditions: Vero C1008
[15] = THP-1 cell cytotoxicity, dose response, cytotoxicity control for non-replicating M. tuberculosis project (AID 489025); format: functional
[16] = target: T5, Heat shock factor protein 1 (Mus musculus, UniProt P38532); assay: HSF1 potentiators in luciferase reporter cells, confirmation, cell-based, NIH3T3, luminescence, dose retest (AID 435004); format: functional;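 note: stress induced by proteasome inhibitor MG132 added 30 min after compound; luciferase reporter driven by HSF1 response element in NIH3T3 cells; actives raise luminescence as potentiators of the MG132 stress response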
T5 sequence (P38532 whole entry): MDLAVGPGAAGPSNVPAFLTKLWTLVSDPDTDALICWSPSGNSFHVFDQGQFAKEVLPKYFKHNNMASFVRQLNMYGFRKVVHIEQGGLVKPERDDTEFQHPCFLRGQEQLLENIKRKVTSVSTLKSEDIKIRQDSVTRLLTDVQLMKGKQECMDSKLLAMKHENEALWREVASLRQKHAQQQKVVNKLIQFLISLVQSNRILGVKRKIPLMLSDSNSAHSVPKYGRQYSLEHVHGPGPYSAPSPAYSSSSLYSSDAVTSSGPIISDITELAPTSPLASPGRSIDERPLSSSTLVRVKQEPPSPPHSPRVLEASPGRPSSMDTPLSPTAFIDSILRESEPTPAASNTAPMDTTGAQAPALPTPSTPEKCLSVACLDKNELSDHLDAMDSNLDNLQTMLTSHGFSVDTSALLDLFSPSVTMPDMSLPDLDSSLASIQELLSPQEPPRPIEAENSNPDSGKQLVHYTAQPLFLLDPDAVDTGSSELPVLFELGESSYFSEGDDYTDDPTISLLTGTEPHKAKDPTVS

[17] = target: Glyceraldehyde-3-phosphate dehydrogenase (Homo sapiens, UniProt P04406)
Chain of Glyceraldehyde-3-phosphate dehydrogenase (P04406 whole entry): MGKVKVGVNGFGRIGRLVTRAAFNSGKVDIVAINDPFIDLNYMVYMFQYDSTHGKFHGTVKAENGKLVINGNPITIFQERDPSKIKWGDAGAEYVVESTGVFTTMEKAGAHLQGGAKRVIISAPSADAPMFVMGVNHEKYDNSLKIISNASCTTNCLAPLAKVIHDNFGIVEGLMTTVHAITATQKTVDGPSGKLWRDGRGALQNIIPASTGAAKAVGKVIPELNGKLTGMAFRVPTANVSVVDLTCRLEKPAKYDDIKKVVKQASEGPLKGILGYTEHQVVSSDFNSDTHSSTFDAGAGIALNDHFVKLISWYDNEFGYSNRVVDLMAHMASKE

Chain of Alkaline phosphatase, placental type (P05187 whole entry): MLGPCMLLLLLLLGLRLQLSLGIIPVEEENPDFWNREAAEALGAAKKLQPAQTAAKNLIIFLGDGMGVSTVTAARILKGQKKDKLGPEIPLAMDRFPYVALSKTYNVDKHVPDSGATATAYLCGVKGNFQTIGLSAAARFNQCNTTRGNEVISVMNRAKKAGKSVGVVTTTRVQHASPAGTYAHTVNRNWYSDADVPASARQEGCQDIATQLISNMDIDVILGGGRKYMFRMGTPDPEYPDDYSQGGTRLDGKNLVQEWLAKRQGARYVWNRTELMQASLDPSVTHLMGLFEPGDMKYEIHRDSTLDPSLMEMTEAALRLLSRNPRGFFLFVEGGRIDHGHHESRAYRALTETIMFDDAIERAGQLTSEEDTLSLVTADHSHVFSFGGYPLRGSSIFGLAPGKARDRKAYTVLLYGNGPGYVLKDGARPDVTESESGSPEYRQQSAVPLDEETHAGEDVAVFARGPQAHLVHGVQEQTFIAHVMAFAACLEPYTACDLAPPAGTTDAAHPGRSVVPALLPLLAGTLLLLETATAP
Chain of Nucleotide-binding oligomerization domain-containing protein 2 (Q9HC29 whole entry, the tested form may be a part): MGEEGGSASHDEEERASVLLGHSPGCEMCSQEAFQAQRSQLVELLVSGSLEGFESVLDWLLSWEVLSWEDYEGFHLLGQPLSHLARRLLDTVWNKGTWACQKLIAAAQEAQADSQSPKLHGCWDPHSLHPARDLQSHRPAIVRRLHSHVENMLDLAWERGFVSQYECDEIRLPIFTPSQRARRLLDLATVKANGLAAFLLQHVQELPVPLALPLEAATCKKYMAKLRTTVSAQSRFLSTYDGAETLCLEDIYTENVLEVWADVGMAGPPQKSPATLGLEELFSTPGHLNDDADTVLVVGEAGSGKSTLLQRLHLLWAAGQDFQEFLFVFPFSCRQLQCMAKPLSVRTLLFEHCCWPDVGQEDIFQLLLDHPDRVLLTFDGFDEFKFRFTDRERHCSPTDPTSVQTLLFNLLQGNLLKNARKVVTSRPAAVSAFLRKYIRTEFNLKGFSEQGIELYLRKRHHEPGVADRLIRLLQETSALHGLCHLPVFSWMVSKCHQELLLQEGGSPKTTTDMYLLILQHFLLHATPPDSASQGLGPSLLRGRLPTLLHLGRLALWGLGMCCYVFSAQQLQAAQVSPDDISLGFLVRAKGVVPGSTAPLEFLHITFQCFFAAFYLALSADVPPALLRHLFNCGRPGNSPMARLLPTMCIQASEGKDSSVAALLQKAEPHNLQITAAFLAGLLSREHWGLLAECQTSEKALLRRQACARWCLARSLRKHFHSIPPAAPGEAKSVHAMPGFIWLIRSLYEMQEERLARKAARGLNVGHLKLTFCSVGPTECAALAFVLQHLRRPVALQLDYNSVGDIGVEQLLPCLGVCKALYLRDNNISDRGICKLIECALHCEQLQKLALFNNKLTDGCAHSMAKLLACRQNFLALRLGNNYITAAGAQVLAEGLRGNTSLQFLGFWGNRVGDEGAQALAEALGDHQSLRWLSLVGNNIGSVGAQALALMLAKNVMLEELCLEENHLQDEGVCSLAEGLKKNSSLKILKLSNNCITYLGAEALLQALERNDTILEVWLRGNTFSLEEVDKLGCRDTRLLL

SMILES	EC50 [1]	EC50 (HEK293 [2])	IC50 (HEK293 [3])	IC50 (HEK293 [4])	IC50 (HEK293 [6])	IC50 (HEK293 [7])	IC50 [8]	IC50 [9]	IC50 (cells)	CC50 [14]	CC50 [15]	other results
Cc1nc2c(-c3ccc(Cl)cc3)cnn2c(N)c1-c1ccc(F)cc1	> 20 µM (inactive)	> 20 µM (inactive)	2.34 µM (active)	> 20 µM (inactive)	> 20 µM (inactive)	> 20 µM (inactive)						IC50 [5]: > 85.4 µM (inactive)
CCc1nc(SCC(=O)c2ccc(O)cc2O)n[nH]1							> 100 µM (inactive)	> 100 µM (inactive)				
CC(C)CC(=O)/C(=C\c1ccc(Cl)cc1Cl)n1cncn1	> 20 µM (inactive)	> 20 µM (inactive)	4.25 µM (active)	7.85 µM (active)	> 20 µM (inactive)	9.81 µM (active)						AC50 [10]: 11.8 µM (active); AC50 [11]: 2.04 µM (active); EC50 [12]: 4.72 µM (active); EC50 (Protein RecA): 11.2 µM (active); EC50 [13]: 4.31 µM (active)
O=C(N/N=C\c1ccc([N+](=O)[O-])s1)C1COc2ccccc2O1 (centres undefined)		9.04 µM (active)	19.1 µM (active)	16.2 µM (inactive)		> 20 µM (inactive)			5.68 µM (active)	13.3 µM (active)	22.6 µM (active)	
COc1ccc(C(=O)Cn2c(C)nc([N+](=O)[O-])c2Br)cc1									12.1 µM (active)	> 20 µM (active)	> 40 µM (active)	EC50 [16]: 19.8 µM (active)
CCc1ccc(-c2ccc(-c3nc(N)nn3-c3ccccc3)cc2)cc1							> 100 µM (inactive)	> 100 µM (inactive)				IC50 [17]: > 100 µM (not active)
